In patent publication EP2801357A1, “Carboxylated stilbenes for activating AMPK and sirtuins” (IMD Natural Solutions GmbH, priority 2013, dated 2014):
Marks after values point to notes of the source that are not given here.

Tests used:
[1] = target: T1, Sirt3 (Homo sapiens, UniProt Q9NTG7); test: SIRT3 Fluorimetric Drug Discovery Kit, Sirt3 activation; format: biochemical
T1 construct: purchased BioMol, Hamburg, Germany
T1 sequence (Q9NTG7 1-399): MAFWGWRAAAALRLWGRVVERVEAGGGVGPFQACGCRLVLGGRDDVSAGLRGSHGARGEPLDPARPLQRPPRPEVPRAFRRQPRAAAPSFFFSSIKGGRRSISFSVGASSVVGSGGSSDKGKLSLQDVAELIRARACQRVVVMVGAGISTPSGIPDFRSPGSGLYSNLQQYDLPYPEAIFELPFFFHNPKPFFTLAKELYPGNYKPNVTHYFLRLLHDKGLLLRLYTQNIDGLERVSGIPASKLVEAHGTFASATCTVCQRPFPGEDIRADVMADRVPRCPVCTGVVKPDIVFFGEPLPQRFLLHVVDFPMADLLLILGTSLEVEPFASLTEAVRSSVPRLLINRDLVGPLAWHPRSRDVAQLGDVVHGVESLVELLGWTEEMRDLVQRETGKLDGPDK

[2] = test system: 5'-AMP-activated protein kinase (AMPK); test: Western blot analysis of AMPK phosphorylation in NHEK; format: cell-based, human; settings: 48 h;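 on P-AMPK: Chemiluminescence band density of P-AMPK measured with Multigauge software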
[3] = test system: normal human dermal fibroblasts (NHDF); test: Mitochondria content of NHDF, Mito-ID Green Detection Kit; format: cell-based
Procedure: The effect of compound (I-1) on mitochondria biosynthesis was investigated in normal human dermal fibroblasts (NHDF). NHDF were obtained from PromoCell (Lot No. 006151; donor; from eyelid skin) and cultivated in Fibroblast Growth Medium (PromoCell; Cat. No. C-023020) supplemented with Supplement Mix (PromoCell; Cat. No. C-039215) at 37 °C /5% CO2. NHDF were seeded in flat-bottom 96-well plates (5000 cells / well) and incubated in said medium for 24 h or 48 h, respectively, with the compounds present in concentrations ranging from 0.03 µM to 200 µM. Mitochondria content was analyzed using the Mito-ID® Green Detection Kit for fluorescence microscopy (Enzo Life Sciences; Cat. No. ENZ-51055-K500). Fluorometric analysis was done using a Spectramax plate reader (Molecular Devices) and following the manufacturer's protocol. Cytotoxicity was determined in parallel by fluorometric readout using the Resazurin Based In Vitro Toxicology Assay Kit (Sigma Aldrich, Cat. No. TOX-8), and following the manufacturer's protocol.

[4] = Experiment 1, Membrane 1, 10 µM
[5] = Experiment 1, Membrane 1, 30 µM

In the case of `CCOC(=O)c1c(O)cccc1/C=C/c1ccc(OCC)cc1` [(I-1)], the remaining activity at 0.3 µM ([1]; Example 2, Table 5, 0.3 µM, read-out: Activity [% control]) was 109%, the remaining activity at 1 µM ([1]; Example 2, Table 5, 1.0 µM, read-out: Activity [% control]) was 124% and the remaining activity at 3 µM ([1]; Example 2, Table 5, 3.0 µM, read-out: Activity [% control]) was 156%. The remaining activity at 10 µM ([1]; Example 2, Table 5, 10.0 µM, read-out: Activity [% control]) was 216%, the remaining activity at 30 µM ([1]; Example 2, Table 5, 30.0 µM, read-out: Activity [% control]) was 247% and the EC300 ([1]; Example 2, Table 6, Sirt3, footnote for (I-1): clear activation in dose-response curve visible) was >30* µM. For the same compound, the “AMPK phosphorylation [% Control]” value ([2]; Experiment 1, Membrane 1, 3 µM) was 60 % Control, the P-AMPK ([2]; Experiment 1, Membrane 1, 3 µM) was 123 AU/mm^2 and the “Ratio P-AMPK/ GAPDH” value ([2]; Experiment 1, Membrane 1, 3 µM) was 0.26. The “AMPK phosphorylation [% Control]” value [2, 4] was 90 % Control, the P-AMPK [2, 4] was 202 AU/mm^2 and the “Ratio P-AMPK/ GAPDH” value [2, 4] was 0.38. For the same compound, the “AMPK phosphorylation [% Control]” value [2, 5] was 1006 % Control, the P-AMPK [2, 5] was 2554 AU/mm^2 and the “Ratio P-AMPK/ GAPDH” value [2, 5] was 4.26. The “Signal intensity [% Control]” value ([3]; 24 h incubation time, 0.03 µM) was 100 % Control, the “Signal intensity [% Control]” value ([3]; 24 h incubation time, 0.09 µM) was 99 % Control and the “Signal intensity [% Control]” value ([3]; 24 h incubation time, 0.27 µM) was 100 % Control. For the same compound, the “Signal intensity [% Control]” value ([3]; 24 h incubation time, 0.82 µM) was 101 % Control, the “Signal intensity [% Control]” value ([3]; 24 h incubation time, 2.47 µM) was 103 % Control and the “Signal intensity [% Control]” value ([3]; 24 h incubation time, 7.41 µM) was 114 % Control. The “Signal intensity [% Control]” value ([3]; 24 h incubation time, 22.22 µM) was 182 % Control, the “Signal intensity [% Control]” value ([3]; 24 h incubation time, 66.67 µM) was 354 % Control and the “Signal intensity [% Control]” value ([3]; 24 h incubation time, 200.00 µM) was 906 % Control. The “Signal intensity [% Control]” value ([3]; 48 h incubation time, 0.03 µM) was 97 % Control, the “Signal intensity [% Control]” value ([3]; 48 h incubation time, 0.09 µM) was 92 % Control and the “Signal intensity [% Control]” value ([3]; 48 h incubation time, 0.27 µM) was 91 % Control. The “Signal intensity [% Control]” value ([3]; 48 h incubation time, 0.82 µM) was 93 % Control, the “Signal intensity [% Control]” value ([3]; 48 h incubation time, 2.47 µM) was 94 % Control and the “Signal intensity [% Control]” value ([3]; 48 h incubation time, 7.41 µM) was 103 % Control. The “Signal intensity [% Control]” value ([3]; 48 h incubation time, 22.22 µM) was 147 % Control, the “Signal intensity [% Control]” value ([3]; 48 h incubation time, 66.67 µM) was 293 % Control and the “Signal intensity [% Control]” value ([3]; 48 h incubation time, 200.00 µM) was 765 % Control. The “concentrations with significant enhancement of mitochondria biosynthesis” value ([3]; NHDF, 24 h and 48 h) was at least 10 µM.
